Measurements from US8703815B2, “Small molecules that covalently modify transthyretin” (The Scripps Research Institute, priority 2009, dated 2014).
Blank lines part the entries; values can stand above or below the compound they belong to.

What was measured:
[1] = system: familial amyloid polyneuropathy (FAP); conditions: phase II/III placebo-controlled; cited from earlier work
[2] = system: WT-TTR cytotoxicity in human IMR-32 neuroblastoma cells; conditions: cited from earlier work
[3] = Quantum yield measurement in buffer; assay type: physicochemical
Method: (§1) The covalent TTR modifier A1 or A2 or the non-covalent TTR ligand B2 (15 μL of a 1.44 mM solution in DMSO, final concentration: 7.2 μM) was added to 3 mL of a solution of WT-TTR homotetramer (0.2 mg/mL, 3.6 μM) in 10 mM phosphate, 100 mM KCl and 1 mM EDTA (pH 7.0 phosphate buffer). The samples were vortexed, and incubated for 18 hours at 25° C. Quantum yields were measured by following the instructions at the web site: jobinyvon.com/usadivisions/Fluorescence/applications/quantumyieldstrad.pdf. Quinine bisulfate in 0.5 M H2SO4 was used as a reference for comparison (Φf=0.546). [Crosby et al., J. Phys. Chem. 1971, 75, 991-1024.]

[4] = Photoisomerization upon irradiation (312 nm, 10 seconds); assay type: physicochemical; conditions: 312 nm
Method: Although TTR can bind to small molecules composed of two aromatic rings when the tethered rings are up to 40° out of plane {based on TTR-stilbene crystal structures [Klabunde et al., Nat. Struct. Biol. 2000, 7, 312-321; Connelly et al., Curr. Opin. Struc. Biol. 2010, 20, 54-62; Johnson et al., J. Med. Chem. 2008, 51, 6348-6358; Choi et al., J. Am. Chem. Soc. 2010, 132, 1359-1370; Choi et al., Nat. Chem. Biol. 2010, 6, 133-139; Baures et al., Bioorg. Med. Chem. 1998, 6, 1389-1401; and Baures et al., Bioorg. Med. Chem. 1999, 7, 1339-1347]}, it would be energetically unfavorable to bind the excited singlet state in a conformation where the two aryl rings are oriented perpendicular to one another. Thus, we propose that the increase in fluorescence quantum yield of B2 from 0.09 in buffer to 0.55 in complex with TTR results from the resculpted excited singlet state energy surface of the stilbene in complex with TTR, such that the trans-conformer is the only state of relatively low potential energy [Gorner, H.; Kuhn, H. J. Adv, Photochem. 1995, 19, 1-117; Malkin et al., J. Phys. Chem. 1964, 68, 1153-1163; Saltiel, J. J. Am. Chem. Soc. 1967, 89, 1036-1037; Saltiel et al., J. Am. Chem. Soc. 1972, 94, 6445-6457; Saltiel et al., J. Am. Chem. Soc. 1979, 101, 2982-2996; and Saltiel et al., J. Am. Chem. Soc. 1968, 90, 4759-4760] inhibiting photoisomerization-based relaxation of B2. That B2 binding to TTR inhibits B2 photoisomerization is consistent with the observation that the irradiation of B2 in buffer (Life Technologies, TFX-35M, 312 nm) for 10 seconds affords 60% of the cis isomer, along with other minor photoreaction products, whereas irradiation of B2 bound to TTR yields only 20% cis isomer.
It appears that the increase in fluorescence quantum yield of A2 from 0.00 in buffer to 0.27 in the TTR-(stilbene)n≦2 conjugate is only partly explained by the mechanism proposed for B2 [Gorner, H.; Kuhn, H. J. Adv, Photochem. 1995, 19, 1-117; Malkin et al., J. Phys. Chem. 1964, 68, 1153-1163; Saltiel, J. J. Am. Chem. Soc. 1967, 89, 1036-1037; Saltiel et al., J. Am. Chem. Soc. […]

[5] = molecular target: T1, K15A-TTR (Homo sapiens, UniProt P02766, K35A); assay: Fluorimetric assay with recombinant K15A-TTR; assay type: binding; conditions: B2 7.2 μM
T1 construct: composed of 127-residue β-sheet-rich subunits; made in house
Method: [The source words this procedure for another variant and says it was used here with some conditions changed.] The excitation spectra are shown with dotted traces (λmax=328 nm), and emission spectra are adjacently (λmax=384 nm). Very low fluorescence resulted from 328 nm excitation of stilbene Compounds 4 or 2 alone in buffer (FIGS. 4A and 4B; traces substantially on the X-axis).
WT-TTR was expressed in an E. coli expression system and purified as described previously. [Lashuel et al., Biochemistry 1999, 38, 13560-13573] The covalent TTR modifiers (A1 or A2) or the non-covalent TTR ligand B2 (5 μL of a 1.44 mM solution in DMSO, final concentration: 7.2 μM) were added to 1 mL of a solution of WT-TTR homotetramer (0.2 mg/mL, 3.6 μM) in 10 mM phosphate, 100 mM KCl and 1 mM EDTA (pH 7.0 phosphate buffer) in a 2 mL Eppendorf tube. The samples were vortexed, and incubated for 18 h at 25° C. The fluorescence changes were monitored using a Varian Cary 50 spectrofluorometer at 20° C. in a 1 cm path length quartz cell. The excitation slit was set at 5 nm and the emission slit was set at […]. The samples were excited at 328 nm and the emission spectra were collected from 350 to 550 nm.
WT-TTR was expressed and purified from an E. coli expression system as described previously. [Lashuel et al., Biochemistry 1999, 38:13560]. The covalent modifiers (Compounds 4 or 2) or the non-covalent TTR ligand Compound B2 (5 μL of a 1.44 mM solution in DMSO) were added to 1 mL of a solution of WT-TTR (0.2 mg/mL, 3.6 μM) in 10 mM phosphate, 100 mM KCl and 1 mM EDTA (pH 7.0) in a 2 mL Eppendorf tube. The samples were vortexed, and incubated for 18 hours at 25° C. The fluorescence changes were monitored using a Varian Cary 50 spectrofluorometer at 20° C. in a 1 cm path length quartz cell. The excitation slits was set at 5 nm and the emission slits was set at […]. The samples were excited at 328 nm and the emission spectra were collected from 330 to 550 nm (FIG. 4). The time-dependent fluorescence changes were monitored in similar manner (FIG. 5).

[6] = molecular target: T2, WT-TTR (Homo sapiens, UniProt P02766); assay: Quantum yield measurement with WT-TTR; assay type: physicochemical; conditions: compound 7.2 μM
T2 construct: composed of 127-residue β-sheet-rich subunits; made in house; host or cells: E. coli
Method: as §1

[7] = molecular target: T2, WT-TTR; assay: RP-HPLC analysis of conjugation to recombinant WT-TTR; assay type: binding; conditions: data not shown
Method: The ability of candidate covalent kinetic stabilizers Compounds 1-4 to form a chemoselective amide bond with the K15 residue of WT-TTR was assessed by incubating the recombinant WT-TTR tetramer (3.6 μM) with Compounds 1-4 (7.2 μM, the minimum concentration required to covalently modify both T4 binding sites) for 18 hours at 25° C. The stilbene-TTR conjugate was quantified by reverse-phase (RP)-HPLC using a denaturing acetonitrile gradient.
Recombinant WT-TTR was expressed as described previously [Lashuel et al., Biochemistry 38:13560-13573 (1999)]. For analysis of test compounds with TTR, each compound (1.5 μL in DMSO, 1.44 mM) was added to 300 μL of WT-TTR or K15A mutant TTR (3.6 μM, 10 mM sodium phosphate, 100 mM KCl, 1 mM EDTA, pH 7.0). The samples were vortexed, and incubated for 18 hours at 25° C. Reverse phase high performance liquid chromatography (RP-HPLC) was performed on a Water 600 E multi-solvent delivery system, using a Waters 486 tunable absorbance detector, a 717 autosampler, and a ThermoHypersil Keystone Betabasic-18 column μ150 Å pore size, 3 μm particle size, and mobile phase A; 0.1% TFA in 95% H2O+5% CH3CN and mobile phase B, 0.1% TFA in 95% CH3CN+5% H2O). Linear gradients were run from 100:0 to 0:100 A:B for 27 minutes.

SMILES: O=C(O)c1ccc2nc(-c3cc(Cl)cc(Cl)c3)oc2c1 [Tafamidis]
- clinical efficacy in familial amyloid polyneuropathy [1]: halt the progression of familial amyloid polyneuropathy

SMILES: Oc1ccc(C=Cc2cc(O)cc(O)c2)cc1 [resveratrol]
- inhibition of amyloid-formation-associated cytotoxicity (literature) [2]: known to inhibit amyloid-formation-associated cytotoxicity

- fluorescence quantum yield in buffer [3]: 0.09
- % cis isomer after irradiation bound to TTR [4]: 20%
- % cis isomer after irradiation in buffer [4]: 60%
- increase in fluorescence intensity upon binding to K15A-TTR (B2) [5]: approximately 4 fold
- fluorescence quantum yield in complex or conjugate with TTR [6]: 0.55
SMILES: CCCNC(=O)c1cc(/C=C/c2cc(C)c(O)c(C)c2)cc(N(C)C)c1 [Compound B2, (E)-3-(dimethylamino)-5-(4-hydroxy-3,5-dimethylstyryl)-N-propylbenzamide]

- modification yield of the WT-TTR subunits (in words) [7]: lower modification yield
SMILES: Cc1cc(/C=C/c2ccc(C(=O)Oc3ccc(F)cc3)cc2)cc(C)c1O [Compound 7]
